From patent US8278300B2, “Use for PDE5 inhibitors” (Nycomed GmbH, priority 2004, dated 2012)

Experiments:
pulmonary circulation = test: Pulmonary haemodynamics in patients with chronic pulmonary hypertension; format: in vivo, human; conditions: inhaled iloprost, oral sildenafil
[1] = system: cerebral blood flow within the posterior cerebral artery; test: Transcranial Doppler of visually stimulated cerebral blood flow in pulmonary hypertension patients; format: in vivo, human; conditions: for cerebral microvascular reactivity: patients with chronic pulmonary hypertension
From the text: It has been shown—contrary to the skilled person's expectation, that the vasodilating effect achieved with a PDE5 inhibitor extends to the improvement of the kinetics in blood flow changes upon stimulation of the cortex by utilizing a visual stimulation paradigm. This could be shown by using the doppler-ultrasound technology which can measure the heart-beat dependent pulsatile blood flow within the basale cerebral vasculature with very high resolution. With a standard visual stimulation the Doppler is able by insonate the posterior cerebral artery to measure the activity-dependent blood-flow-regulation. [Rosengarten et al. (2001) Neurovascular coupling in terms of a control system: validation of a second-order linear system model. Ultrasound Med. Biol. 27: 631-5; Babikian et al. (2000) Transcranial Doppler ultrasonography: year 2000 update. J Neuroimaging 10: 101-115]
A pharmaceutical preparation comprising a PDE5 inhibitor can be used to treat patients with primary and secondary pulmonary hypertension. […] The hemodynamics aspects of the cerebral blood flow modulation can be described by a mathematical model (see Rosengarten et al., Headache 2003; 43: 458-463). This cited model contains a parameter T which defines the initial fast responding properties of the blood flow upon visual stimulation and three parameters (K, ζ and ω) which define the delayed adjustment of the […] blood flow. T is called the hold-back-time or rate time, K is the gain (which means change in blood flow velocity upon visual stimulation),ζ the attenuation (which represents the dampening due to vessel wall attenuation) and ω the natural frequency (represents the oscillating properties in dynamic neurovascular coupling). Patients with primary and secondary pulmonary hypertension display a pulmonary disturbance between ventilation of the alveoli and their perfusion. Such a demand-dependent inadequate perfusion has also been shown for the vasculature near the muscles. In this invention it is shown that patients with pulmonary hypertension display an increase in the rate time (meaning T is larger) and an enhanced attenuation ζ of the cerebral blood flow within the posterior cerebral artery upon visual stimulation. Thus it is shown that the mentioned disturbed micro-perfusion observed in patients with pulmonary hypertension extents to that of the brain. […] In addition the pro-longed hold-back time (rate time) in the patients is shortened by treatment with the PDE5-inhibitor sildenafil. This measurements have been performed 1 h after sildenafil intake but all responses to oral sildenafil outlasted 120-150 min.
In contrast to sildenafil iloprost treatment (2,8 μg inhaled in 4 min) worsens the impaired rate time and attenuation in patients with pulmonary hypertension (FIG. 1).
FIG. 1. Assessment of cerebral flow characteristics. Values for rate time and attenuation are presented in this graph. Medians (filled circles) and 95% confidence intervals (bars) are given for healthy controls, and patients at baseline (untreated), after iloprost inhalation, and subsequent to oral sildenafil intake. Statistical differences were assessed by ANOVA (p-values indicate significant differences between groups). Fisher's post hoc test was calculated at a significance level of p<0.05;

[2] = system: rats with LPS-induced sepsis; test: LPS-induced sepsis in anaesthetized rats: sensoric evoked potentials and evoked cerebral blood flow; format: in vivo, rat; conditions: 4½ h after inducing sepsis with LPS
Procedure: Modulation of the cerebral blood flow evoked by repetitive electrical stimulation of the sole of one foot of the rats is measured by Doppler ultrasound technology as well as the sensoric evoked neuronal potentials (SEPs) by EEG. Baseline measurements are performed before application of LPS to the rats to induce sepsis.

[3] = system: epicardial coronary arteries; conditions: patients with coronary artery disease; cited from earlier work
stroke in rats = conditions: cited from earlier work
[4] = patients with pulmonary hypertension, iloprost 2,8 μg inhaled in 4 min

Compound	pulmonary arterial pressure (pulmonary circulation)	pulmonary vascular resistance (pulmonary circulation)	cerebral microvascular reactivity [1]	attenuation of cerebral blood flow upon visual stimulation [1, 4]	rate time of cerebral blood flow upon visual stimulation [1, 4]	stimulus induced cerebral blood flow ([2]; Doppler ultrasound)	amplitude of the SEP (sensoric evoked neuronal potentials) ([2]; electrical stimulation of one foot)	relaxation of epicardial coronary arteries [3]	functional recovery after stroke (stroke in rats)	neurogenesis after stroke (stroke in rats)	duration of responses to oral sildenafil ([1]; patients with pulmonary hypertension, 50 mg oral) [min]	hold-back time (rate time) T of cerebral blood flow upon visual stimulation ([1]; patients with pulmonary hypertension, sildenafil 50 mg, oral, 1 h after intake)	attenuation parameter ζ of cerebral blood flow upon visual stimulation ([1]; patients with pulmonary hypertension, sildenafil 50 mg, oral, one hour before measurement)
CC#CCC(C)[C@H](O)/C=C/[C@@H]1[C@H]2C/C(=C/CCCC(=O)O)C[C@H]2C[C@H]1O (stereo partly shown) [iloprost]	significant reduction	significant reduction	gradually worsened	worsens	worsens	–	–	–	–	–	–	–	–
CCCc1nn(C)c2c(=O)[nH]c(-c3cc(S(=O)(=O)N4CCN(C)CC4)ccc3OCC)nc12 [sildenafil, 5-[2-ethoxy-5-(4-methylpiperazin-1-ylsulfonyl)phenyl]-1,6-dihydro-1-methyl-3-propylpyrazolo[4,3-d]pyrimidin-7-one]	significant reduction	significant reduction	significantly improved	–	–	greatly restores	greatly restores	relax epicardial coronary arteries	promotes functional recovery	induces neurogenesis	120 to 150	shortened	significantly reduced
